Test results published in paper PMC5698726, “Allosteric Tuning of Caspase‐7: A Fragment‐Based Drug Discovery Approach” (Angewandte Chemie (International Ed. in English), 2017).

Tests used:
caspase-7 (C7) [1] = biological target: T1, caspase-7 (C7) (Homo sapiens, UniProt P55210); test: steady-state kinetics, Ac-DEVD-AFC cleavage; format: biochemical
T1 construct: gene CASP7; mature (processed, active) caspase-7, dimer, 6xHis tag; expression details only in supplement
T1 sequence (P55210 24-198): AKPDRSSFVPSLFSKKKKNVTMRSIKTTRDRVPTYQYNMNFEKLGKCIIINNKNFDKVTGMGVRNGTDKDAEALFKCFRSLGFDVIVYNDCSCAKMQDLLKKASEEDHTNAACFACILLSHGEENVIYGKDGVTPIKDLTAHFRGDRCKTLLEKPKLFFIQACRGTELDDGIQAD
T1 sequence (P55210 207-303): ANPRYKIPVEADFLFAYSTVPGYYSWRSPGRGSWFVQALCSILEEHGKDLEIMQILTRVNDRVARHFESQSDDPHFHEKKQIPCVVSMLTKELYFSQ

caspase-7 (C7) [2] = biological target: T1, caspase-7 (C7); test: fluorogenic Ac-DEVD-AFC cleavage assay; format: biochemical
caspase-7 (C7) [3] = biological target: T1, caspase-7 (C7); test: SPR OneStep injection, His-captured protein, […] fit; format: binding; settings: read-out: Dissociation constant

## O=C(O)Cc1ccccc1Sc1ccccc1 [compound 6, 6]
caspase-7 (C7) [1]
  Ki: 0.667 ± 0.0319 mM
caspase-7 (C7) [2]
  IC50: 0.637 ± 0.00104 mM

## CC(=O)c1ccccc1Sc1ccccc1C(=O)O [compound 1, 1]
caspase-7 (C7) [1]
  Ki: 5.47 ± 0.398 mM
caspase-7 (C7) [2]
  IC50: 3.98 ± 0.00105 mM
caspase-7 (C7) [3]
  Kd: 8 ± 3 mM

## O=C(O)C1c2ccccc2Oc2ccccc21 [compound 2, 2]
caspase-7 (C7) [1]
  Ki: 4.32 ± 0.194 mM
caspase-7 (C7) [2]
  IC50: 8.52 ± 0.0012 mM
caspase-7 (C7) [3]
  Kd: 4.09 ± 0.3 mM
